The record followed here is patent US7384933B2, “Derivatives of 2-hydroxytetrahydrofuran and their use as medicaments” (priority 2003, dated 2008).

`CC(C)C[C@H](NC(=O)[C@@H](NC(=O)COc1ccc2c(c1)Nc1ccccc1S2)C(C)C)C(=O)N[C@H]1CCOC1O` (stereo partly drawn) [Example 43, N-[(10H-phenothiazin-2-yloxy)acetyl]-L-valyl-N^1-[(3S)-2-hydroxytetrahydrofuran-3-yl]-L-leucinamide]: the melting point fell in the range of 205 to 206 °C.
As for `CCC[C@H](NC(=O)COc1ccc2c(c1)Nc1ccccc1S2)C(=O)N[C@@H](CC(C)C)C(=O)N[C@H]1CCOC1O` (stereo partly drawn) [Example 49, N-[(10H-phenothiazin-2-yloxy)acetyl]-L-norvalyl-N^1-[(3S)-2-hydroxytetrahydrofuran-3-yl]-L-leucinamide], the figure is 195 to 196 °C; as for `CC(C)C[C@H](NC(=O)COc1ccc2c(c1)Nc1ccccc1S2)C(=O)N[C@@H](CC(C)C)C(=O)N[C@H]1CCOC1O` (stereo partly drawn) [Example 40, N-[(10H-phenothiazin-2-yloxy)acetyl]-L-leucyl-N^1-[(3S)-2-hydroxytetrahydrofuran-3-yl]-L-leucinamide], 141.5 to 142 °C.
Molecule `COC1OCC[C@@H]1NC(=O)[C@H](CC(C)C)NC(=O)[C@H](C)NC(=O)COc1ccc2c(c1)Nc1ccccc1S2` (some centres unmarked) showed a melting point of 195 to 196 °C.
The molecule `CC[C@H](NC(=O)COc1ccc2c(c1)Nc1ccccc1S2)C(=O)N(C(=O)[C@@H](N)CC(C)C)[C@H]1CCOC1O` (stereo partly drawn) [Example 48, N^1-[(3S)-2-hydroxytetrahydrofuran-3-yl]-N^1-((2S)-2-{[(10H-phenothiazin-2-yloxy)acetyl]amino}butanoyl)-L-leucinamide] came in with a melting point of 160 to 161 °C.
As for `CC(C)C[C@H](NC(=O)c1ccc2c(c1)Nc1ccccc1S2)C(=O)N[C@@H](CC(C)C)C(=O)N[C@H]1CCOC1O` (stereo partly drawn) [Example 8, N-(10H-phenothiazin-2-ylcarbonyl)leucyl-N^1-[(3S)-2-hydroxytetrahydrofuran-3-yl]-L-leucinamide], the figure is 144 to 144.5 °C; as for `CC(C)C[C@H](NC(=O)[C@H](C)NC(=O)COc1ccc2c(c1)Nc1ccccc1S2)C(=O)N[C@H]1CCOC1O` (stereo partly drawn) [Example 42, N-[(10H-phenothiazin-2-yloxy)acetyl]-L-alanyl-N^1-[(3S)-2-hydroxytetrahydrofuran-3-yl]-L-leucinamide], 144 to 146 °C.
`CC(C)C[C@H](NC(=O)CN(C)C(=O)COc1ccc2c(c1)Nc1ccccc1S2)C(=O)N[C@H]1CCOC1O` (stereo partly drawn) [Example 45, N-methyl-N-[(10H-phenothiazin-2-yloxy)acetyl]glycyl-N^1-[(3S)-2-hydroxytetrahydrofuran-3-yl]-L-leucinamide] came in with a melting point of 137 to 138 °C.
The figure for `CC(C)C[C@H](NC(=O)CNC(=O)COc1ccc2c(c1)Nc1ccccc1S2)C(=O)N[C@H]1CCOC1O` (stereo partly drawn) [Example 41, N-[(10H-phenothiazin-2-yloxy)acetyl]-glycyl-N^1-[(3S)-2-hydroxytetrahydrofuran-3-yl]-L-leucinamide] is 184 to 186 °C; for `CC(C)C[C@H](NC(=O)[C@@H](NC(=O)COc1ccc2c(c1)Nc1ccccc1S2)C(C)(C)C)C(=O)N[C@H]1CCOC1O` (stereo partly drawn) [Example 47, 3-methyl-N-[(10H-phenothiazin-2-yloxy)acetyl]-L-valyl-N^1-[(3S)-2-hydroxytetrahydrofuran-3-yl]-L-leucinamide] it is 157 to 159 °C.
As for `CC(C)C[C@H](NC(=O)C(C)(C)NC(=O)COc1ccc2c(c1)Nc1ccccc1S2)C(=O)N[C@H]1CCOC1O` (some centres unmarked) [Example 54], the figure is 138 to 140 °C; as for `COC1OCC[C@@H]1NC(=O)[C@H](CC(C)C)NC(=O)[C@@H](NC(=O)COc1ccc2c(c1)Nc1ccccc1S2)C(C)C` (some centres unmarked), 240 to 241 °C; as for `COC1OCC[C@@H]1N(C(=O)[C@@H](NC(=O)COc1ccc2c(c1)Nc1ccccc1S2)c1ccccc1)C(=O)[C@@H](N)CC(C)C` (some centres unmarked), 215 to 217 °C.
As for `COC1OCC[C@@H]1NC(=O)[C@H](CC(C)C)NC(=O)[C@H](NC(=O)COc1ccc2c(c1)Nc1ccccc1S2)C(C)C` (some centres unmarked), the figure is 204 to 206 °C; as for `COC1OCC[C@@H]1NC(=O)[C@H](CC(C)C)NC(=O)[C@H](CCCCNC(=O)OCc1ccccc1)NC(=O)c1ccc2c(c1)Nc1ccccc1S2` (some centres unmarked), 102 to 103 °C.
For the molecule `COC1OCC[C@@H]1NC(=O)[C@H](CC(C)C)NC(=O)[C@@H]1CCCN1C(=O)c1ccc2c(c1)Nc1ccccc1S2` (some centres unmarked), the melting point was in the range of 243 to 243.5 °C.
As for `CCC[C@H](NC(=O)COc1ccc2c(c1)Nc1ccccc1S2)C(=O)N[C@@H](CC(C)C)C(=O)N[C@H]1CCOC1OC` (some centres unmarked), the figure is 225 to 226 °C; as for `COC1OCC[C@@H]1NC(=O)[C@H](CC(C)C)NC(=O)[C@H](CC(C)C)NC(=O)c1ccc2c(c1)Nc1ccccc1S2` (some centres unmarked), 180 to 180.5 °C.
As for `O=C(COc1ccc2c(c1)Nc1ccccc1S2)NCC(=O)N[C@@H](CC1CCCCC1)C(=O)N[C@H]1CCOC1O` (stereo partly drawn) [Example 56, N-[(10H-phenothiazin-2-yloxy)acetyl]glycyl-3-cyclohexyl-N^1-[(3S)-2-hydroxytetrahydrofuran-3-yl]-L-alaninamide], the figure is 212 to 215 °C; as for `CC(C)[C@H](NC(=O)CNC(=O)COc1ccc2c(c1)Nc1ccccc1S2)C(=O)N[C@H]1CCOC1O` (stereo partly drawn) [Example 55, N-[(10H-phenothiazin-2-yloxy)acetyl]glycyl-N^1-[(3S)-2-hydroxytetrahydrofuran-3-yl]-L-valinamide], 200 to 201 °C.
As for `C[C@H](NC(=O)Cc1ccc2c(c1)Nc1ccccc1S2)C(=O)N[C@@H](CC1CCCCC1)C(=O)N[C@H]1CCOC1O` (stereo partly drawn) [Example 18, N-(10H-phenothiazin-2-ylacetyl)-L-alanyl-3-cyclohexyl-N^1-[(3S)-2-hydroxytetrahydrofuran-3-yl]-L-alaninamide], the figure is 215 to 217 °C; as for `NC(=O)[C@H](Cc1ccccc1)N(C(=O)CNC(=O)COc1ccc2c(c1)Nc1ccccc1S2)[C@H]1CCOC1O` (stereo partly drawn) [Example 57, N-[(10H-phenothiazin-2-yloxy)acetyl]glycyl-N^1-[(3S)-2-hydroxytetrahydrofuran-3-yl]-L-phenylalaninamide], 207 to 208 °C; as for `COC1OCC[C@@H]1NC(=O)[C@H](CC(C)C)NC(=O)C(C)(C)NC(=O)COc1ccc2c(c1)Nc1ccccc1S2` (some centres unmarked), 119 to 120 °C.
The molecule `CC(C)C[C@H](NC(=O)[C@H](NC(=O)COc1ccc2c(c1)Nc1ccccc1S2)C(C)C)C(=O)N[C@H]1CCOC1O` (stereo partly drawn) [Example 46, N-[(10H-phenothiazin-2-yloxy)acetyl]-D-valyl-N^1-[(3S)-2-hydroxytetrahydrofuran-3-yl]-L-leucinamide] gave a melting point of 145 to 146 °C.
As for `CC(C)C[C@H](NC(=O)Cc1ccc2c(c1)Nc1ccccc1S2)C(=O)N[C@@H](CC(C)C)C(=O)N[C@H]1CCOC1O` (stereo partly drawn) [Example 16, N-(10H-phenothiazin-2-ylacetyl)-L-leucyl-N^1-[(3S)-2-hydroxytetrahydrofuran-3-yl]-L-leucinamide], the figure is 168 to 168.5 °C; as for `CC(C)C[C@H](NC(=O)[C@H](COC(C)(C)C)NC(=O)Cc1ccc2c(c1)Nc1ccccc1S2)C(=O)N[C@H]1CCOC1O` (stereo partly drawn) [Example 17, O-(tert-butyl)-N-(10H-phenothiazin-2-ylacetyl)-L-seryl-N^1-[(3S)-2-hydroxytetrahydrofuran-3-yl]-L-leucinamide], 135 to 136 °C; as for `CC(C)C[C@H](NC(=O)[C@@H]1CCCN1C(=O)c1ccc2c(c1)Nc1ccccc1S2)C(=O)N[C@H]1CCOC1O` (stereo partly drawn) [Example 10, 1-(10H-phenothiazin-2-ylcarbonyl)-L-prolyl-N^1-[(3S)-2-hydroxytetrahydrofuran-3-yl]-L-leucinamide], 144.5 to 145 °C.
The figure for `COC1OCC[C@@H]1NC(=O)[C@H](CC(C)C)NC(=O)CN(C)C(=O)COc1ccc2c(c1)Nc1ccccc1S2` (some centres unmarked) is 92 to 95 °C; for `COC1OCC[C@@H]1NC(=O)[C@H](CC(C)C)NC(=O)CNC(=O)COc1ccc2c(c1)Nc1ccccc1S2` (some centres unmarked) it is 181 to 182 °C; for `CC(C)C[C@H](NC(=O)CNC(=O)c1ccc2c(c1)Nc1ccccc1S2)C(=O)N[C@H]1CCOC1O` (stereo partly drawn) [Example 7, N-(10H-phenothiazin-2-ylcarbonyl)glycyl-N^1-[(3S)-2-hydroxytetrahydrofuran-3-yl]-L-leucinamide] it is 126 to 126.5 °C.
The figure for `CC(C)C[C@H](NC(=O)[C@H](CCCCNC(=O)OCc1ccccc1)NC(=O)c1ccc2c(c1)Nc1ccccc1S2)C(=O)N[C@H]1CCOC1O` (stereo partly drawn) [Example 9, N 6-[(benzyloxy)carbonyl]-N^2-(10H-phenothiazin-2-ylcarbonyl)lysyl-N^1-[(3S)-2-hydroxytetrahydrofuran-3-yl]-L-leucinamide] is 109 to 109.5 °C; for `CC[C@H](NC(=O)COc1ccc2c(c1)Nc1ccccc1S2)C(=O)N[C@@H](CC(C)C)C(=O)N[C@H]1CCOC1OC` (some centres unmarked) it is 164 to 165 °C.
`COC1OCC[C@@H]1NC(=O)[C@H](CC(C)C)NC(=O)[C@@H](NC(=O)COc1ccc2c(c1)Nc1ccccc1S2)[C@@H](C)O` (some centres unmarked) gave a melting point of 92 to 93 °C.
As for `CC(C)C[C@H](NC(=O)CCNC(=O)COc1ccc2c(c1)Nc1ccccc1S2)C(=O)N[C@H]1CCOC1O` (stereo partly drawn) [Example 44, N-[(10H-phenothiazin-2-yloxy)acetyl]-β-alanyl-N^1-[(3S)-2-hydroxytetrahydrofuran-3-yl]-L-leucinamide], the figure is 161 to 162 °C.
As for `CC(C)CN(CC(=O)N[C@H]1CCOC1O)C(=O)CNC(=O)COc1ccc2c(c1)Nc1ccccc1S2` (some centres unmarked), the figure is 122 to 124 °C.
The molecule `C=CC(NC(=O)COc1ccc2c(c1)Nc1ccccc1S2)C(=O)NC(CC(C)C)C(=O)NC1CCOC1O` [Example 53, N^1-[(3S)-2-hydroxytetrahydrofuran-3-yl]-N^2-((2S)-2-{[(10H-phenothiazin-2-yloxy)-acetyl]amino}goal-3-enoyl)-L-leucinamide] came in with a melting point of 159 to 161 °C.
Turning to `COC1OCC[C@@H]1NC(=O)[C@H](CC(C)C)NC(=O)[C@@H](NC(=O)COc1ccc2c(c1)Nc1ccccc1S2)C(C)(C)C` (some centres unmarked), the melting point was in the range of 152 to 153 °C.
As for `CC(C)C[C@H](NC(=O)[C@@H](NC(=O)COc1ccc2c(c1)Nc1ccccc1S2)[C@@H](C)O)C(=O)N[C@H]1CCOC1O` (stereo partly drawn) [Example 51, N-[(10H-phenothiazin-2-yloxy)acetyl]-L-threonyl-N^1-[(3S)-2-hydroxytetrahydrofuran-3-yl]-L-leucinamide], the figure is 195 to 196 °C.

By melting point is commonly meant the temperature, or range, at which the solid turns liquid.
